Experimental findings from patent US12257253B2, “Triamterene or nolatrexed for use in the treatment of phenylketonuria” (SOM INNOVATION BIOTECH, S.A., priority 2019, dated 2025) are described below.

Holding throughout (format): cell-based
Assay [1] concerns the target T1, Arg261Gln (R261Q) PAH (Homo sapiens (Human), UniProt P00439, R261Q). Description: Phenylalanine hydroxylase residual protein amount (dot blot, COS-7 lysates). Conditions: COS-7 cells, compound 10 μM (sepiapterin 5 μM), 48 h; read-out: PAH protein level (immune blot signal) R261Q PAH Mean. How it is done:
(§1) 3. Phenylalanine Hydroxylase Residual Protein Amount
(§2) The analysis of the residual PAH protein amount was based on the method described in Gersting S. W. et al., Human Molecular Genetics, 2010, 19(10), 2039-2049 with modifications.
(§3) Detection of the residual PAH protein amount was performed as a dot blot using the lysates obtained from the cell culture where transiently transfected COS-7 cells (with wild-type PAH or PAH variant) were exposed for 48 h to compounds. The experiment was carried out from the same samples as used for measuring enzyme activities.
(§4) 2 μl of the lysate were dropped onto the nitrocellulose membrane. The membrane was allowed to air dry at room temperature for 30 min followed by 40 min blocking in 5% milk in TBS-Tween (room temperature). The membrane was incubated with the mouse monoclonal primary antibody specific for PAH (Millipore, Cat. No. MAB5278, 1:1000 dilution in 5% milk in TBS-Tween) for overnight at 4° C. Next, the membrane was washed (3×10 min in TBS-Tween) and incubated with the secondary HRP-conjugated antibody (anti-mouse antibody; Santa Cruz Biotechnology, Inc., Cat. No. sc-2005; 1:1000 dilution in 5% milk in TBS-Tween) followed by thorough washing in TBS-Tween (3×10 min) and distilled water (1×10 min). Blots were visualized with Pierce™ ECL substrate (ThermoFisher Scientific, Cat No. 32106) and chemiluminescence was monitored with a DIANA III Imaging system or ChemiDoc™ MP Imaging System (BioRad). To analyze the compound effect on the PAH protein amount densitometry analysis was performed using ImageJ Software.
(§5) The effect of compound on PAH protein amount was calculated from triplicates. As for determination of the enzyme activity the background of the not transfected cells (NT) was subtracted from the transfected cells (NCC or compound treated). In the next step delta of the NCC versus compound treated cells was calculated. Residual protein amount greater than 100% represents an increase in the stability of the enzyme with respect to NCC.

Assay [2] concerns the target T2, wild-type PAH (Homo sapiens (Human), UniProt P00439). The assay is described as above. Conditions: COS-7 cells, compound 10 μM (sepiapterin 5 μM), 48 h; read-out: PAH protein level (immune blot signal) WT PAH Mean. The procedure: as §1, §2, §3, §4, §5
Assay [3] has as its target T1, Arg261Gln (R261Q) PAH. Description: Phenylalanine hydroxylase enzyme activity assay in transfected COS7 cells. Conditions: compound 10 μM (sepiapterin 5 μM), 48 h. The procedure:
(§6) 2. Phenylalanine Hydroxylase Enzyme Activity Assay
(§7) This assay was completed in cell culture to analyze the enzyme activity in the presence of compounds. In brief, wild-type or Arg261Gln PAH constructs were transiently expressed in COS7-cells in a 96 well format reflecting the PAH genotype (COS7 cell line has no endogenous PAH). Cells were treated with the compounds at a final concentration of 10 μM and the enzyme activity of PAH was analyzed 48 h after transfection. The effect of the compounds on the residual enzyme activity was determined in comparison to non-treated cells (NCC, only compound solvent final 0.1%). To normalize the cellular background signal non transfected cells (NT control) were treated with compound or solvent equally for 48 h. As a positive control we used sepiapterin, a stable precursor of BH4 (CAS 17094-01-8), stabilized in 100 mM DTT, in a final concentration of 5 μM.
(§8) PAH activities were assayed at 25° C. as previously described (Gersting, S. W., J. Biol. Chem., 2010, 285(40), 30686-30697) with modifications. The standard mixture contained 22.35 mM NaHepes, pH 7.0, […] catalase, 10 μM ferrous ammonium sulphate, and 1 mM L-Phe (L-phenylalanine) final. Assay mixture and cell culture enzyme were pre-incubated for 5 min and the reaction was initiated by the addition of 75 μM BH4 (stabilized in 100 mM dithiothreitol) final, run for 60 min and stopped by acetic acid. The amount of L-tyrosine production was measured and quantified by HPLC, assayed as triplicates.
(§9) The effect of compound on PAH enzyme activity was calculated from triplicates as follows: first the background of the NT cells were subtracted from the transfected cells (treated or NCC) and then the percentage of treated (compound) versus NCC was determined. Enzyme activity greater than 100% represents an increase in the enzyme activity with respect to NCC.

The target in assay [4] is T2, wild-type PAH. The assay is described as above. The conditions noted are these: compound 10 μM (sepiapterin 5 μM), 48 h. The procedure:
as §6, §7, §8, §9

T1 sequence (P00439 whole entry R261Q): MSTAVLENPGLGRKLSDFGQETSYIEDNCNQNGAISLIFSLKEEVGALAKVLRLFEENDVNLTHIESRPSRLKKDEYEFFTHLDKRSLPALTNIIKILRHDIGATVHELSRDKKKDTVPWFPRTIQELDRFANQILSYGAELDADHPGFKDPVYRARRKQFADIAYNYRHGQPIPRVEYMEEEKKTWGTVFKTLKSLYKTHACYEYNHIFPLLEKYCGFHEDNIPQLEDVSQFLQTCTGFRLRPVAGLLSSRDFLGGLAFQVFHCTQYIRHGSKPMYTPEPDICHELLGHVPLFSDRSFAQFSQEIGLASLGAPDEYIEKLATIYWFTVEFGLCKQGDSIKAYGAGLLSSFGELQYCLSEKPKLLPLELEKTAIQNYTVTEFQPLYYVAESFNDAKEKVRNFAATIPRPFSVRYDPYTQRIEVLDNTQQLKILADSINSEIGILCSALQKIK
T2 sequence (P00439 whole entry): as the sequence (P00439 whole entry R261Q) above, with Q261R counted along it

Consider `Nc1nc(N)c2nc(-c3ccccc3)c(N)nc2n1` [Triamterene, 2,4,7-triamino-6-phenylpteridine], for which the PAH protein level (% of control) at 10 µM at Arg261Gln (R261Q) PAH [1] was found to be 130%; on wild-type PAH [2], 110%. For the same molecule, the “PAH enzyme activity (L-Tyrosine formation) R261Q PAH Mean” value at Arg261Gln (R261Q) PAH [3] was found to be 161.48 % NCC. The “PAH enzyme activity (L-Tyrosine formation) WT PAH Mean” value at wild-type PAH [4] was found to be 118.98 % NCC.
